Results reported in the NIST ThermoML archive (doi:10.1016/j.tca.2015.02.004).
“And” between values parts separate entries of the source, which are not always exact repeats. Identical values can stand only once.

Key:
[1] = Liquid, Diaphragm manometer
[2] = Boiling temperature at pressure P; conditions: Liquid, Distillation

C[Si](C)(C)N[Si](C)(C)C [1,1,1,3,3,3-hexamethyldisilazane]
[1]
Conditions	vapor or sublimation pressure [kPa]
290.8 K	1.51
290.9 K	1.54
292 K	1.68
293.5 K	1.73
301.1 K	2.71
301.5 K	2.68
311.4 K	4.25
312.4 K	4.36
320.2 K	5.93
321.2 K	6.6
329.7 K	9.72
330.9 K	10.21
331.8 K	10.3
340.1 K	14.79
341.1 K	15.35
349.8 K	20.68
352.7 K	23.41
360.3 K	30.3
360.5 K	31.34
370 K	42.85
371.8 K	45.32
382.2 K	59.76

C[Si](C)(C)NCc1ccccc1 [(benzylamino)trimethylsilane]
Conditions	Boiling temperature at pressure P [°C]
[2], 2 kPa	98.00

C[Si](C)(C)N(c1ccccc1)[Si](C)(C)C [N,N-bis(trimethylsilyl)aniline]
Conditions	Boiling temperature at pressure P [°C]	vapor or sublimation pressure
[1], 321.8 K	–	0.15 kPa
[1], 322.1 K	–	0.2 kPa
[1], 330.7 K	–	0.29 kPa
[1], 331.2 K	–	0.24 kPa
[1], 331.4 K	–	0.26 kPa
[1], 341.9 K	–	0.36 kPa
[1], 351.2 K	–	0.59 kPa and 0.61 kPa
[1], 351.4 K	–	0.59 kPa
[1], 361.1 K	–	0.96 kPa
[1], 361.2 K	–	1 kPa
[1], 371.2 K	–	1.56 kPa
[1], 380.7 K	–	2.34 kPa
[1], 381.2 K	–	2.32 kPa
[1], 390.9 K	–	3.54 kPa
[1], 400.5 K	–	5.22 kPa
[1], 400.7 K	–	5.19 kPa
[1], 400.9 K	–	5.65 kPa
[1], 410.7 K	–	7.51 kPa
[1], 411 K	–	7.35 kPa
[1], 421.4 K	–	10.96 kPa
[1], 421.5 K	–	10.91 kPa
[1], 421.9 K	–	10.9 kPa
[1], 431.7 K	–	15.13 kPa
[1], 441.2 K	–	20.51 kPa
[1], 441.6 K	–	20.37 kPa
[1], 451.2 K	–	27.3 kPa
[2], 0.267 kPa	60.00	–

C[Si](C)(C)Nc1ccccc1 [trimethyl(phenylamino)silane]
Conditions	Boiling temperature at pressure P [°C]	vapor or sublimation pressure [kPa]
[1], 311.6 K	–	0.2
[1], 312.8 K	–	0.24
[1], 332.5 K	–	0.65
[1], 350.9 K	–	1.64
[1], 371.8 K	–	3.76
[1], 372.1 K	–	3.79
[1], 390 K	–	7.38
[1], 391.4 K	–	7.86
[1], 391.6 K	–	7.85
[1], 410.6 K	–	14.88
[1], 411.6 K	–	15.98
[1], 421.7 K	–	21.19
[1], 422.7 K	–	22.43
[1], 431.8 K	–	28.53
[1], 432.7 K	–	30.61
[1], 446.1 K	–	43.07
[1], 452.1 K	–	52.87
[1], 455.2 K	–	55.6
[2], 0.4 kPa	56.00	–

C[Si](C)(C)c1ccccc1 [trimethylphenylsilane]
Conditions	Boiling temperature at pressure P [°C]	vapor or sublimation pressure [kPa]
[1], 296.7 K	–	0.33
[1], 297.7 K	–	0.29
[1], 298.8 K	–	0.31
[1], 322.2 K	–	1.14
[1], 322.7 K	–	1.28
[1], 333.2 K	–	2.02
[1], 343.7 K	–	3.24
[1], 352.2 K	–	4.73
[1], 352.8 K	–	4.91
[1], 371.9 K	–	10.63
[1], 372.2 K	–	11.04
[1], 373.2 K	–	10.82
[1], 382.9 K	–	15.75
[1], 391 K	–	21.76
[1], 392.1 K	–	21.75
[1], 392.4 K	–	22.02
[1], 401.1 K	–	29.35
[2], 1.866 kPa	56.00	–
